Laboratory results as given in paper PMC5065787 (Bioorganic & medicinal chemistry, 2016).
Numbering of substitutions follows the chain as printed.

Legend:
Assay type in all cases: biochemical
Conditions in all cases: error in parentheses, no unit in table (sec^−1)
[1] = target: T1, WT h15-LOX-1 (Homo sapiens, UniProt P16050); experiment: Steady-state substrate kinetics, WT
T1 sequence (P16050 1-662): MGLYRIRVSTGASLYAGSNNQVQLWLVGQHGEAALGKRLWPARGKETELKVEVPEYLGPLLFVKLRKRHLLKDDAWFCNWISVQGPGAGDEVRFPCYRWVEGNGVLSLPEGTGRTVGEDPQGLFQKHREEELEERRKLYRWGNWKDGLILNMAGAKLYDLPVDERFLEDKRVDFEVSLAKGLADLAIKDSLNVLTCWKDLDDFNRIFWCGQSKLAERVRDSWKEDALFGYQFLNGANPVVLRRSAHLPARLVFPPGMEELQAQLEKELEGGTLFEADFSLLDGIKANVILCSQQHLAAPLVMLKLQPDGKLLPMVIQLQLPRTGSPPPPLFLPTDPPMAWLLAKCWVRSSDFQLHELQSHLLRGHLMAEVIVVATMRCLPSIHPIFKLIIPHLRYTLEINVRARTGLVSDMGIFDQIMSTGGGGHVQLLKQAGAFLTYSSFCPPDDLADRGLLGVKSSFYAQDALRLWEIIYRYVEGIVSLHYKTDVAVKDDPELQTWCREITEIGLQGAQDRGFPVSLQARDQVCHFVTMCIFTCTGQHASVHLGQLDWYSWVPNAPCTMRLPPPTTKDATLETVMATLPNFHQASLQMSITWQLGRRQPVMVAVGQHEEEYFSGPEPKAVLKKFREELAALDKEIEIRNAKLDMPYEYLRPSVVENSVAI

[2] = target: T2, h15-LOX-1 F414W (Homo sapiens, UniProt P16050, F414W); experiment: Steady-state substrate kinetics, F414W
T2 sequence (P16050 1-662 F414W): T1 sequence (P16050 1-662) with F414W

[3] = target: T3, h15-LOX-1 Q547L (Homo sapiens, UniProt P16050, Q547L); experiment: Steady-state substrate kinetics, Q547L
T3 sequence (P16050 1-662 Q547L): T1 sequence (P16050 1-662) with Q547L

[4] = target: T4, h15-LOX-1 E356Q (Homo sapiens, UniProt P16050, E356Q); experiment: Steady-state substrate kinetics, E356Q
T4 sequence (P16050 1-662 E356Q): T1 sequence (P16050 1-662) with E356Q

CCCCC/C=C\C/C=C\C/C=C\C/C=C\CCCC(=O)O [AA, arachidonic acid]
kcat [1]: 11 (0.5) | kcat [2]: 2.8 (0.08) | kcat [3]: 2.9 (0.1) | kcat [4]: 3.0 (0.1)
